Data reported in patent publication US10011571B2, “Preparation method for aromatic heterocyclic compound used as selective JAK3 and/or JAK1 kinase inhibitor and application of aromatic heterocyclic compound” (SHENZHEN CHIPSCREEN BIOSCIENCES, LTD., priority 2014, dated 2018).

How the values were obtained:
HeLa cells = test: Cell growth activity assay (MTS), HeLa cell model; assay type: cell-based, human; parameters: activity: dose or concentration left out as unconfirmed; conditions: Homo sapiens, HeLa, 72 h; for activity: read-out: HeLa % growth rate
Method in brief: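 HeLa human cervical cancer cells were plated at about 5000 cells/well in a 96-well plate. After 24 h, test compounds were added in concentration gradients (highest final concentration 40 μM), alongside a DMSO solvent control and a negative control. After another 72 h, the medium was replaced with 100 μL fresh medium plus 20 μL MTS/PMS (20:1). Plates were incubated 2 h at 37° C. and absorbance was read at 490 nm to give growth inhibition and GI50.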

HUVEC cells = test: Cell growth activity assay (MTS), HUVEC cell model; assay type: cell-based; conditions: Homo sapiens, 72 h; for activity at 10 µM: read-out: HUVEC % growth rate @10 μM
Description: MTS assay is a routine method for cell toxicity detection. The basic principle is based on the capacity of dehydrogenase in the mitochondria of living cells to reduce a novel yellow […] MTS to formazan, so that the amount of living cells is proportional to the amount of formazan product by detecting the absorbance at 490 nm (OD), thereby speculating the amount of living cells according to the OD value, and understanding the capacity of the test compound to inhibit the growth of cells or to kill the cells.
HeLa cell is a human cervical cancer cell line, and belongs to epithelial tumor cell line; HUVEC is a human umbilical vein endothelial cell, and belongs to primary endothelial cell; both types of cells express all subtypes except for JAK3.
The change of JAK kinase activity has no significant influence on other cell types except for the immune cells, and both cell models mentioned above are mainly used to evaluate whether there are any other kinase targets besides JAK kinases or there are nonselective cell toxicities.
In this experiment, a cultured cell model is incubated with the test compounds at different concentrations for a specific duration. The effect of the treatment by the test compound on the growth of cells is detected using MTS assay.
MTS is performed according to routine procedure in a 96-well plate.
The model cells are inoculated into each well of the 96-well plate at an appropriate concentration (about 5000 cells/well). After 24 h, the test compounds are added at different concentration gradients (the highest final concentration is 40 μM). A solvent control (DMSO) and a negative control are also performed at the same time. Each experiment is repeated for 3 times. The cells are detected after cultured for another 72 h.
After all culture medium is aspirated out of the well, 100 μL fresh medium and 20 μL pre-formulated mixture of MTS and PMS (in a ratio of 20:1) are added to each well. After incubation at 37° C. for 2 h, it is then detected by a microplate reader (490 nm).
The cell growth inhibitory rate and GI50 of the test compound are calculated as above.
Based on the above method, cytological evaluation is performed to the compounds described herein (for the detection of CTLL-2 cell, the concentration of the test compound is 300 nM; […]).

EPO/JAK2/STAT5a (UT-7) = test: Intracellular activity assay, EPO induced STAT5 phosphorylation in UT-7/EPO; assay type: cell-based; conditions: Homo sapiens, inhibition of STAT5 phosphorylation, EPO 10 ng/mL
Description: In this experiment, western blot (WB) and flow cytometry are used to evaluate the intracellular activities of the test compounds by comparing the relative levels of the signals of phosphorylated and non-phosphorylated STATs in 5 cell models, including U937, THP-1, CTLL-2, UT-7/EPO and activated human periphery blood cell (hPBC). The primary antibody and secondary antibody used in WB hybridization in this experiment are purchased from Cell Signaling Company (http://www.cellsignal.com). The fluorescence-labeled antibodies used in flow cytometry are purchased from eBiosciences Company (http://www.ebioscience.com).
UT-7/EPO is a cell line formed from the marrow of a patient suffering from […] after cultured with EPO induction, and it has obvious response to cytokine EPO. The signal for EPO is transmitted via the homodimer of JAK2 and induces the phosphorylation of downstream STAT5, while a JAK inhibitor suppresses the phosphorylation of STAT5 by suppressing the activity of JAK2. The intracellular inhibitory activity of the compounds on JAK2 can be evaluated by detecting the change of the phosphorylation level of STAT5.
(1) Treatment by the compound: the experiment is carried out in a 6-well plate. […]
(2) Cell fixation and fluorescence labeling: the cells are fixed using paraformaldehyde (30 min), and subsequently treated for membrane permeability in chilled methanol (15 min). […]
(3) Detection by flow cytometry: the detection is carried out using Guava® easyCyte flow cytometer according to the instruction. The median fluorescent intensity (MFI) of a sample is detected using an appropriate cell population. On such a basis, the relative signal intensities are calculated for the phosphorylated STATs treated by the compounds at different concentrations by reference to the signal of the negative (with no factor stimulation) and the positive control (with both factor stimulation and solvent control) in the experiment, so that the IC50 of the compound for the inhibitory activity on STATs phosphorylation can be evaluated.

| SMILES | activity (HeLa cells) | activity at 10 µM (HUVEC cells) | GI50 (HUVEC cells) | IC50 (EPO/JAK2/STAT5a (UT-7)) | GI50 (HeLa cells) |
| --- | --- | --- | --- | --- | --- |
| C=CC(=O)N(C)c1cc(Nc2ncc(Cl)c(NCCCNC(=O)c3ccc(F)cc3)n2)ccc1F [Example 23, N-(3-(5-chloro-2-(4-fluoro-3-(N-methylacrylamido)phenylamino)pyrimidinyl-4-amino)propyl)-4-fluorobenzamide] | 96% | 112% | > 40 µM | > 3 µM |  |
| C=CC(=O)N(C)c1cc(Nc2ncc(Cl)c(NCCCNC(=O)c3ccc(C#N)cc3)n2)ccc1F [Example 7, N-(3-(5-chloro-2-(4-fluoro-3-(N-methylacrylamido)phenylamino)pyrimidinyl-4-amino)propyl)-4-cyano-benzamide] | 98% | 94% | > 40 µM | > 3 µM | > 40 µM |
| C=CC(=O)N(C)c1cc(Nc2ncc(Cl)c(NCCCNC(=O)c3ccc(C(F)(F)F)cc3)n2)ccc1F [Example 22, N-(3-(5-chloro-2-(4-fluoro-3-(N-methylacrylamido)phenylamino)pyrimidinyl-4-amino)propyl)-4-trifluoromethylbenzamide] | 78% | 116% | > 40 µM | > 3 µM | > 40 µM |
